Assay results published in patent US20150086627A1, “DOSAGE FORMS OF HALOFUGINONE AND METHODS OF USE” (priority 2012, published 2015).
Counter-ions that a name gives are not always drawn. Like-named read-outs stand apart in the source and are kept apart here.

Tests used:
[1] = system: dogs; test: Previous study in dogs, daily oral dosing for up to 28 days; format: in vivo
Description: The dose levels were selected based on the results of a previous study in dogs in which the high-dose group was dosed at 0.15 mg/kg/day for up to 28 days (this dose was tolerated for the entire course of the study).

[2] = Plasma pharmacokinetics of Halofuginone hydrobromide in Beagle dogs (Example C); settings: dog, in vivo; for half-life: t1/2
Description: Blood samples were collected from the jugular, cephalic, or saphenous veins into tubes containing EDTA at the following time points: 0, 0.5, 1, 2, 4, 8, 12, 24, and 48 h postdose. Blood samples were kept on wet ice until processing. Blood samples were centrifuged at 3200 RPM for 10 min at ˜5° C. Plasma samples were directly transferred to a 96-well plate tube (1.1 mL). Plug caps were placed on the tubes. Plasma samples were stored at −20±5° C. until they were shipped for analysis.
Statistical analysis of PK parameters for dogs treated with both enteric and oral solutions were calculated using Excel® spreadsheets. Summary statistics were derived for the following PK parameters for each dog receiving both the dog EC tablets and the oral drug as a clear solution in Group 1: • Cmax (ng/mL): Maximum Observed Concentration • tmax (h): Time Point at Cmax • AUC(0−t) (ng·h/mL): AUC to the last non-zero concentration (t is the corresponding time) • AUC(0−∞) (ng·h/mL): AUC(0-∞)=AUC(0-t)+AUC(t-∞) • t1/2(h): Half-life; time taken for drug plasma concentration to fall by one-half • % F: Bioavailability; [AUC(0-t)×*Dose IV (mg/kg)]/[AUC(0-t)IV*Dose×(mg/kg)] Paired differences for each dog were determined by subtracting the summary PK value as follows: […]

[3] = system: human leiomyosarcoma tumor cells; settings: low concentrations; cells stimulated by serum or HB-EGF; cited from earlier work
[4] = system: vascular SMC and fibroblasts; settings: cited from earlier work
[5] = system: Plasmodium berghei; settings: Plasmodium berghei-infected mice; cited from earlier work
[6] = system: cell lines; settings: cited from earlier work
[7] = system: mice; settings: mouse, in vivo, cited from earlier work
[8] = system: beagle dogs; settings: 6 Beagle dogs, oral solution 0.15 mg/kg
Description: Two groups of 6 male Beagle dogs were dosed with two formulations or two routes of administration of Halofuginone hydrobromide. In a cross-over study design, one group received an oral (PO) dose at ˜0.15 mg/kg as enteric-coated (EC) tablets in a gelatin capsule and then another oral dose at 0.15 mg/kg as a solution 7 days later. The second group received a subcutaneous (SC) dose at 0.03 mg/kg as a solution and then an intravenous (IV) dose at 0.05 mg/kg as a solution. The test article was administered once for each dose level and dosage form. The animals were dosed once a week or after completing at least a 7 day washout period. The dose formulations of Halofuginone hydrobromide were EC tablets or 0.3 mg/mL solutions. The EC tablets contained 0.075 mg of Halofuginone hydrobromide. The tablets (20/dog) were loaded into a gelatin capsule prior to dosing.
Each animal received a physical examination prior to dosing, with cage side observations for mortality and morbidity twice daily thereafter. Detailed clinical observations were performed prior to dosing and at 15 minute (min) intervals during the first 2 hours (h) postdose, at 4, 8, and 24 h postdose on dosing days. […]

[9] = system: mdx mice; settings: cited from earlier work
[10] = Plasma pharmacokinetics of halofuginone in male beagle dogs (Example B); format: in vivo; settings: dog
Description: Five groups of five male beagle dogs (25 total dogs) were orally administered various compositions of halofuginone solutions. […] The dogs were fasted overnight prior to administration, and food was returned four hours post-administration. Plasma was drawn from each animal at the time of administration, and then at eight successive time points (0.5, 1, 2, 4, 8, 12, 24, and 48 hours post-administration).
The plasma samples, collected from the dogs at the various time points, were assayed for halofuginone concentrations using HPLC-MS/MS (ACE Excel 2C18 AR, 50×2.1 mm column). [Cmax: maximum observed halofuginone concentration; tmax: time point at Cmax; AUC(0-t): AUC to the last non-zero concentration (t is the corresponding time); AUC(0-∞): AUC(0-∞)=AUC(0-t)+AUC(t-∞); t1/2: half-life; time taken for drug plasma concentration to fall by one-half; Vz_obs: observed volume of distribution; Cl_obs: observed clearance]

[11] = male, Beagle, iv, 0.05 mg/kg, Mean Conc. (plasma)
[12] = male, Beagle, iv, 0.05 mg/kg, Sample Conc. (plasma)
[13] = male, Beagle, po, 0.15 mg/kg, Mean Conc. (plasma)
[14] = male, Beagle, sc, 0.03 mg/kg, Mean Conc. (plasma)
[15] = male, Beagle, sc, 0.03 mg/kg, Sample Conc. (plasma)
[16] = male, beagle, in vivo, po, 0.15 mg/kg

O=C(C[C@@H]1NCCC[C@H]1O)Cn1cnc2cc(Br)c(Cl)cc2c1=O [Halofuginone hydrobromide, 7-Bromo-6-chloro-3-[3-[(2S,3R)-3-hydroxy-2-piperidinyl]-2-oxopropyl]-4-quinazolinone]
clinical signs of toxicity ([1]; 0.15 mg/kg/day for up to 28 days): emesis and decreased activity during the first week of dosing | tolerability ([1]; high-dose group 0.15 mg/kg/day for up to 28 days): tolerated | absolute bioavailability versus oral solution [2]: increased | Cmax ([2]; male, Beagle, iv, 0.05 mg/kg): 6.95 ng/mL | concentration at 0.083 h [2, 11]: 6.96 ng/mL | concentration at 0.5 h [2, 11]: 4.47 ng/mL | concentration at 1 h [2, 11]: 3.81 ng/mL | concentration at 2 h [2, 11]: 2.29 ng/mL | concentration at 4 h [2, 11]: 1.74 ng/mL | concentration at 8 h [2, 11]: 1.08 ng/mL | concentration at 12 h [2, 11]: 0.76 ng/mL | concentration at 24 h [2, 11]: 0.67 ng/mL | concentration at 48 h [2, 11]: 0.23 ng/mL | concentration at 0.083 h [2, 12]: 7.81 ng/mL | concentration at 0.5 h [2, 12]: 5.52 ng/mL | concentration at 1 h [2, 12]: 3.55 ng/mL | concentration at 2 h [2, 12]: 2.13 ng/mL | concentration at 8 h [2, 12]: 0.8 ng/mL | half-life ([2]; male, Beagle, iv, 0.05 mg/kg): 621 min | Tmax ([2]; male, Beagle, iv, 0.05 mg/kg, tmax): 4.8 min | concentration at 0.5 h [2, 13]: 6.41 ng/mL | concentration at 1 h [2, 13]: 4.97 ng/mL | concentration at 2 h [2, 13]: 3.68 ng/mL | concentration at 4 h [2, 13]: 1.87 ng/mL | concentration at 8 h [2, 13]: 1.38 ng/mL | concentration at 12 h [2, 13]: 1.14 ng/mL | concentration at 24 h [2, 13]: 0.53 ng/mL | concentration at 48 h [2, 13]: 0.2 ng/mL | half-life ([2]; male, Beagle, po, 0.15 mg/kg): 810 min | Tmax ([2]; male, Beagle, po, 0.15 mg/kg, tmax): 34.8 min | Sample Conc. (plasma) ([2]; male, Beagle, sc, 0.03 mg/kg, 48 h): 0.12 ng/mL | Cmax ([2]; male, Beagle, sc, 0.03 mg/kg): 3.66 ng/mL | concentration at 0.5 h [2, 14]: 3.62 ng/mL | concentration at 1 h [2, 14]: 1.79 ng/mL | concentration at 2 h [2, 14]: 1.4 ng/mL | concentration at 4 h [2, 14]: 1 ng/mL | concentration at 8 h [2, 14]: 0.63 ng/mL | concentration at 12 h [2, 14]: 0.51 ng/mL | concentration at 24 h [2, 14]: 0.14 ng/mL | concentration at 0.5 h [2, 15]: 2.82 ng/mL | concentration at 1 h [2, 15]: 1.67 ng/mL | concentration at 48 h [2, 15]: 0.16 ng/mL | Tmax ([2]; male, Beagle, sc, 0.03 mg/kg, tmax): 30 min | Tmax ([2]; male, beagle, po, 0.15 mg/kg): 60 min | inhibition of DNA synthesis [3]: strong inhibitor of DNA synthesis | growth of vascular SMC and fibroblasts [4]: inhibits autocrine growth of vascular SMC and fibroblasts | curative effects [5]: displayed curative effects | parasitemias [5]: reduce parasitemias to undetectable levels | angiogenesis inhibition [6]: effective angiogenesis inhibitor | gastrointestinal tract injuries ([7]; 5 mg/kg): widespread gastrointestinal tract injuries, e.g., intestinal hemorrhage | gastrointestinal tract injuries ([7]; sc): did not experience the same levels of gastrointestinal tract injuries | animals with emesis [8]: 5 of 6 | episodes of emesis (total emetic events) [8]: 18 | muscle physiology / muscle regeneration [9]: effective in improving muscle physiology and/or reducing the pressure on muscle regeneration | half-life ([10]; plasma, male beagle dogs, oral 0.15 mg/kg aqueous solution, mean): 889 min | AUC(0-inf) [10, 16]: 49.1 ng·h/mL | AUC(0-t) [10, 16]: 39.5 ng·h/mL | Cl_obs [10, 16]: 57.8 mL/min/kg | Cmax [10, 16]: 5.26 ng/mL | Tmax [10, 16]: 54 min | Vz_obs [10, 16]: 70.73 L/kg
